Values of other authors as cited in patent US20050065219A1, “Treatment of demyelinating conditions” (priority 2003, published 2005).

What was measured:
[1] = biological target: NMDA receptor channel (Homo sapiens, UniProt Q05586); details: Bormann 1989
[2] = system: cortical and retinal neuron cultures; details: cortical and retinal neuron cultures (Deyer et al. 1990)
[3] = rats (Keilhoff et al. 1992)
[4] = biological target: brain membranes ([3H]dizocilpine site) (Homo sapiens, UniProt Q05586); details: Chen et al. 1992
[5] = system: nicotinic acetylcholine receptors; details: Masou et al. 1986
[6] = system: 5-hydroxytryptamine 5-HT3 receptors; details: Reiser et al. 1988
[7] = biological target: PCP and MK-801 binding sites of the NMDA receptor (Homo sapiens, UniProt Q05586); details: postmortem human frontal cortex, at therapeutic concentrations (Kornhuber et al. 1989)
[8] = clinical use for many years (Kornhuber et al. 1994)

## CC12CC3CC(C)(C1)CC(N)(C3)C2 [memantine, 1-amino-3,5-dimethyladamantane]
[1]
  antagonism of the NMDA receptor channel: micromolar antagonist
[2]
  protection from toxicity of glutamate, NMDA and HIV-1 coat protein gp120: protects
[3]
  quinolic acid-induced hippocampal damage: prevents
[4]
  [3H]dizocilpine binding to brain membranes: inhibits
[5]
  block of nicotinic acetylcholine receptors: blocks
[6]
  block of 5-HT3 receptors: blocks
[7]
  binding to PCP and MK-801 binding sites of the NMDA receptor: binds
[8]
  tolerability in clinical use: well tolerated
